One assay deals with bromodomain. The assay is described as follows: Bromodomain cell assays of Example 40 (at least one of them). The class given is cell-based. Conditions: in at least one of the bromodomain cell assays described in Example 40. The gist of the method: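 Growth inhibition: 3000 MV-4-11, MOLM-13, MM.1S or neuroblastoma cells/well got an 8-point 1:3 series from 10 μM top (0.2% DMSO) for 72 h, then CellTiter-Glo luminescence. Myc reporter: MV-4-11 with E-box firefly luciferase, 24 h exposure, One-Glo luminescence plus CellTiter-Fluo cell count. pIC50 from four-parameter fit.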

A further assay concerns MV-4-11. The assay can be described thus: Oncology cell growth assay MV-4-11 (CellTiter Glo, 72 hours). The class given is cell-based. Conditions: Homo sapiens, MV4-11, 72 h; MV-4-11 cell growth inhibitory activity, 3d. An excerpt: Published bromodomain inhibitors JQ1 and iBET 151 have shown activity in variety of cancer cells such leukemia and lymphoma, multiple myeloma cells, NUT midline carcinoma and glioblastoma cells (Dawson M A et al. 2011; Delmore J E 2011; Chen Z et al. 2013; Filippakopoulos P et al. 2010; Mertz J A et al. 2011; Ott C J et al. 2012). In this study, we test compounds in different cancer cell lines. MV-4-11 and MOLM-13 are AML cell lines harboring a MLL-AF4 and MLL-AF9 translocation, respectively. MM.1S is a multiple myeloma cell line. SK-N-AS, IMR-32 and SK-N-BE(2) are neuroblastoma cell lines. IMR-32 and SK-N-BE(2) cell lines harbor MYCN amplifications. MV-4-11, MM.1S, IMR-32, SK-N-AS and SK-N-BE(2) were obtained from ATCC (IL, USA) and MOLM-13 were purchased from DSMZ (Braunschweig, German). Cells are cultured as recommended by their sources. For growth inhibition studies 3000 cells are seeded in wells of a 96-well plate in 75 μL of culture media. After several hours, growth media containing compounds of formula (I) are added to the wells. Compound at a maximal concentration of 5 mM was serially diluted 1:3 for a total of 8 point titration with DMSO as a control. A 1 μL aliquot of each dilution point is added to 249 μL growth media and 75 μL is added to each well containing cells, providing 10 μM compound at the maximum concentration point. The final concentration of DMSO in all wells is 0.2%. Cells are incubated for 72 hours, and 25 μL of CellTiter Glo Reagent (Promega Ga., USA) is added to each well. Plates are shaken for approximately 10 minutes and chemiluminescent signal is read on Tecan microplate reader. The measured luminescence correlates directly with cell number.
All data is normalized to the mean of eight DMSO high control wells on each plate. A four parameter curve fit of the following formula was then applied: Y=a+(b−a)/(1+(x/c)^d) Where ‘a’ is the minimum, ‘b’ is the maximum, ‘c’ is the pIC50 and ‘d’ is the Hill slope. […] Myc Reporter Assay
The following table provides data indicating the BRD4 biochemical inhibitory activity and MV-4-11 cell growth inhibitory activity for exemplary compounds as described herein.
Background: In ATP-based viability assays light output follows the ATP content of the culture.

The structures appear in SMILES notation.

By IC50 is commonly meant the concentration that inhibits the measured activity by half. The low end stands for higher potency, the high end for lower potency.

For `Cc1noc(C)c1-c1cnc2[nH]cc(Cc3cccc4c3OC(F)(F)O4)c2c1` [P-0048, 4-[3-[(2,2-difluoro-1,3-benzodioxol-4-yl)methyl]-1H-pyrrolo[2,3-b]pyridin-5-yl]-3,5-dimethyl-isoxazole], the IC50 in the assay with bromodomain is < 10 µM; in the assay on MV-4-11 it was 1 to 10 µM.
Regarding `CCc1[nH]c2ncc(-c3c(C)noc3C)cc2c1Cc1ccccc1Cl` [P-0049, 4-[3-[(2-chlorophenyl)methyl]-2-ethyl-1H-pyrrolo[2,3-b]pyridin-5-yl]-3,5-dimethyl-isoxazole], the IC50 in the assay on bromodomain was < 10 µM; with MV-4-11, 1 to 10 µM.
In the same order, the values of `Cc1noc(C)c1-c1cnc2ccn(S(=O)(=O)c3ccccc3F)c2c1` [P-0060, 4-[1-(2-fluorophenyl)sulfonylpyrrolo[3,2-b]pyridin-6-yl]-3,5-dimethyl-isoxazole] are < 10 µM and 1 to 10 µM.
In the same order, the values of `Cc1ccc(S(=O)(=O)n2ccc3ncc(-c4c(C)noc4C)cc32)s1` [P-0062, 3,5-dimethyl-4-[1-[(5-methyl-2-thienyl)sulfonyl]pyrrolo[3,2-b]pyridin-6-yl]isoxazole] are < 10 µM and 1 to 10 µM.
In the same order, the values of `Cc1noc(C)c1-c1cnc2[nH]cc(C(C)(C)c3ccc(F)cc3)c2c1` [P-0063, 4-[3-[1-(4-fluorophenyl)-1-methyl-ethyl]-1H-pyrrolo[2,3-b]pyridin-5-yl]-3,5-dimethyl-isoxazole] are < 10 µM and ≤ 1 µM.
In the case of `Cc1noc(C)c1-c1cnc2[nH]cc(C(c3ccc(F)cc3)C3CC3)c2c1` (stereo not shown) [P-0064, 4-[3-[cyclopropyl-(4-fluorophenyl)methyl]-1H-pyrrolo[2,3-b]pyridin-5-yl]-3,5-dimethyl-isoxazole], the IC50 in the assay on bromodomain is < 10 µM; in the assay on MV-4-11, ≤ 1 µM.
The matching figures for `Cc1noc(C)c1-c1cnc2ccn(S(=O)(=O)C3CCCCC3)c2c1` [P-0066, 4-(1-cyclohexylsulfonylpyrrolo [3,2-b]pyridin-6-yl)-3,5-dimethyl-isoxazole]: < 10 µM and ≤ 1 µM.
As to `COC(c1cn(S(=O)(=O)C2CCCCC2)c2cc(-c3c(C)noc3C)cnc12)C1CC1` (stereo not shown) [P-0071, 4-[1-cyclohexylsulfonyl-3-[cyclopropyl(methoxy)methyl]pyrrolo[3,2-b]pyridin-6-yl]-3,5-dimethyl-isoxazole], the IC50 in the assay with bromodomain was < 10 µM; in the assay with MV-4-11, 1 to 10 µM.
`COC(c1c[nH]c2ncc(-c3c(C)noc3C)cc12)C1CCC(F)(F)CC1` (stereo not shown) [P-0073, 4-[3-[(4,4-difluorocyclohexyl)-methoxy-methyl]-1H-pyrrolo[2,3-b]pyridin-5-yl]-3,5-dimethyl-isoxazole]: the results for the IC50 with bromodomain and in the assay with MV-4-11 were < 10 µM and ≤ 1 µM, respectively.
In the same order, the values of `Cc1noc(C)c1-c1cnc2c(CC3CC3)cn(S(=O)(=O)C3CCCCC3)c2c1` [P-0075, 4-[1-cyclohexylsulfonyl-3-(cyclopropylmethyl)pyrrolo [3,2-b]pyridin-6-yl]-3,5-dimethyl-isoxazole] are < 10 µM and 1 to 10 µM.
In the same order, the values of `Cc1noc(C)c1-c1cnc2c(I)cn(S(=O)(=O)c3ccccc3)c2c1` [P-0076, 4-[1-(benzenesulfonyl)-3-iodo-pyrrolo[3,2-b]pyridin-6-yl]-3,5-dimethyl-isoxazole] are < 10 µM and ≤ 1 µM.
The matching figures for `Cc1noc(C)c1-c1cnc2c(-c3ccccc3)cn(S(=O)(=O)c3ccccc3)c2c1` [P-0077, 4-[1-(benzenesulfonyl)-3-phenyl-pyrrolo[3,2-b]pyridin-6-yl]-3,5-dimethyl-isoxazole]: < 10 µM and 1 to 10 µM.
Turning to `CCS(=O)(=O)n1cc(C(OC)C2CCC(F)(F)CC2)c2cc(-c3c(C)noc3C)cnc21` (stereo not shown) [P-0078, 4-[3-[(4,4-difluorocyclohexyl)-methoxy-methyl]-1-ethylsulfonyl-pyrrolo[2,3-b]pyridin-5-yl]-3,5-dimethyl-isoxazole], the IC50 in the assay with bromodomain was < 10 µM; in the assay on MV-4-11, 1 to 10 µM.
For `Cc1noc(C)c1-c1cnc2c(-c3cccnc3)cn(S(=O)(=O)c3ccccc3)c2c1` [P-0084, 4-[1-(benzenesulfonyl)-3-(3-pyridyl)pyrrolo[3,2-b]pyridin-6-yl]-3,5-dimethyl-isoxazole], the IC50 is < 10 µM with bromodomain and ≤ 1 µM in the assay with MV-4-11.
In the same order, the values of `Cc1noc(C)c1-c1cnc2[nH]cc(C(c3ccc(F)cc3)(C3CC3)C3CC3)c2c1` [P-0085, 4-[3-[dicyclopropyl-(4-fluorophenyl)methyl]-1H-pyrrolo[2,3-b]pyridin-5-yl]-3,5-dimethyl-isoxazole] are < 10 µM and 1 to 10 µM.
In the same order, the values of `COC(c1c[nH]c2ncc(-c3c(C)noc3C)cc12)C1CCS(=O)(=O)CC1` (stereo not shown) [P-0089, 4-[[5-(3,5-dimethylisoxazol-4-yl)-1H-pyrrolo[2,3-b]pyridin-3-yl]-methoxy-methyl]thiane 1,1-dioxide] are < 10 µM and 1 to 10 µM.
In the same order, the values of `Cc1noc(C)c1-c1cnc2c(c1)c(C(O)C1CCSCC1)cn2S(=O)(=O)c1ccccc1` (stereo not shown) [P-0090, [1-(benzenesulfonyl)-5-(3,5-dimethylisoxazol-4-yl)pyrrolo[2,3-b]pyridin-3-yl]-tetrahydrothiopyran-4-yl-methanol] are < 10 µM and 1 to 10 µM.
For `Cc1noc(C)c1-c1cnc2[nH]cc(CC3CCS(=O)(=O)CC3)c2c1` [P-0098, 4-[[5-(3,5-dimethylisoxazol-4-yl)-1H-pyrrolo[2,3-b]pyridin-3-yl]methyl]thiane 1,1-dioxide], the IC50 in the assay on bromodomain is < 10 µM; with MV-4-11, 1 to 10 µM.
The matching figures for `Cc1noc(C)c1-c1cnc2c(-c3cnc(C4CC4)nc3)cn(S(=O)(=O)C3CCCC3)c2c1` [P-0103, 4-[1-cyclopentylsulfonyl-3-(2-cyclopropylpyrimidin-5-yl)pyrrolo[3,2-b]pyridin-6-yl]-3,5-dimethyl-isoxazole]: < 10 µM and 1 to 10 µM.
For `COc1ncc(-c2cn(S(=O)(=O)c3ccccc3)c3cc(-c4c(C)noc4C)cnc23)cn1` [P-0104, 4-[1-(benzenesulfonyl)-3-(2-methoxypyrimidin-5-yl)pyrrolo[3,2-b]pyridin-6-yl]-3,5-dimethyl-isoxazole], the IC50 in the assay on bromodomain is < 10 µM; in the assay with MV-4-11 it was 1 to 10 µM.
With `COc1ncc(-c2cn(S(=O)(=O)C3CCCC3)c3cc(-c4c(C)noc4C)cnc23)cn1` [P-0105, 4-[1-cyclopentylsulfonyl-3-(2-methoxypyrimidin-5-yl)pyrrolo[3,2-b]pyridin-6-yl]-3,5-dimethyl-isoxazole], the 50% inhibitory concentration (IC50) in the assay on bromodomain is < 10 µM; in the assay with MV-4-11 it was 1 to 10 µM.
As for `Cc1noc(C)c1-c1cnc2c(c1)c(CC1CCN(C(=O)C(F)(F)F)CC1)cn2C` [P-0106, 1-[4-[[5-(3,5-dimethylisoxazol-4-yl)-1-methyl-pyrrolo[2,3-b]pyridin-3-yl]methyl]-1-piperidyl]-2,2,2-trifluoro-ethanone], the values for the 50% inhibitory concentration (IC50) in the assay with bromodomain and in the assay on MV-4-11 were < 10 µM and ≤ 1 µM, respectively.
The matching figures for `Cc1noc(C)c1-c1cnc2c(-c3cnn(C)c3)cn(S(=O)(=O)c3ccccc3)c2c1` [P-0110, 4-[1-(benzenesulfonyl)-3-(1-methylpyrazol-4-yl)pyrrolo[3,2-b]pyridin-6-yl]-3,5-dimethyl-isoxazole]: < 10 µM and ≤ 1 µM.
As to `CCCS(=O)(=O)n1cc(-c2cnn(C)c2)c2ncc(-c3c(C)noc3C)cc21` [P-0111, 3,5-dimethyl-4-[3-(1-methylpyrazol-4-yl)-1-propylsulfonyl-pyrrolo [3,2-b]pyridin-6-yl] isoxazole], the half-inhibitory concentration (IC50) in the assay on bromodomain was < 10 µM; in the assay with MV-4-11, ≤ 1 µM.
In the same order, the values of `Cc1noc(C)c1-c1cnc2c(-c3cnn(C)c3)cn(S(=O)(=O)C3CCCC3)c2c1` [P-0112, 4-[1-cyclopentylsulfonyl-3-(1-methylpyrazol-4-yl)pyrrolo[3,2-b]pyridin-6-yl]-3,5-dimethyl-isoxazole] are < 10 µM and ≤ 1 µM.
In the same order, the values of `Cc1noc(C)c1-c1cnc2c(c1)c(CC1CCN(S(=O)(=O)c3ccccc3)CC1)cn2C` [P-0113, 4-[3-[[1-(benzenesulfonyl)-4-piperidyl]methyl]-1-methyl-pyrrolo[2,3-b]pyridin-5-yl]-3,5-dimethyl-isoxazole] are < 10 µM and 1 to 10 µM.

Source of the values: US10501460B2, “Heterocyclic compounds and uses thereof” (Plexxikon Inc., priority 2013, dated 2019).
